The target of the assay is T1, CETP (Homo sapiens, UniProt P11597).
T1 sequence (P11597 18-493): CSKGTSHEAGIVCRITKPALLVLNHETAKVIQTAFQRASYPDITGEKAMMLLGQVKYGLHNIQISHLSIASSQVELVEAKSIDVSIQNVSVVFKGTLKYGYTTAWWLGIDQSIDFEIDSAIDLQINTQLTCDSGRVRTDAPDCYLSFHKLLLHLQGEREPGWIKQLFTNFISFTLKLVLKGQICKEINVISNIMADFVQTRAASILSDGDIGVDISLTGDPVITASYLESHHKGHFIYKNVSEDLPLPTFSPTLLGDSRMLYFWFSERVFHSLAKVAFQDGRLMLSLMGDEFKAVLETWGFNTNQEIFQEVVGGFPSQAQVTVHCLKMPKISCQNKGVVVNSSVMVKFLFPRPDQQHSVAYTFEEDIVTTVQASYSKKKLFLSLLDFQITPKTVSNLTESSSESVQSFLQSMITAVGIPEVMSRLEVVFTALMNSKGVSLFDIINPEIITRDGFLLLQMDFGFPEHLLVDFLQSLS
Kind of assay: Assay of CETP Inhibition using Purified Components (Reconstituted Buffer Assay). More on the design: made in house; host or cells: CHO cells (serum-free conditioned medium). As to conditions: transfer of [3H]CE from HDL to LDL. In kind it is biochemical. The procedure:
Assay of CETP Inhibition using Purified Components (Reconstituted Buffer Assay)
The ability of compounds to inhibit CETP activity was assessed using an in vitro assay that measured the rate of transfer of radiolabeled cholesteryl ester ([^3H]CE) from HDL donor particles to LDL acceptor particles. Details of the assay are provided by Glenn, K. C. et al. (Glenn and Melton, “Quantification of Cholesteryl Ester Transfer Protein (CETP): A) CETP Activity and B) Immunochemical Assay of CETP Protein,” Meth. Enzymol., 263, 339-351 (1996)). Human recombinant CETP can be obtained from the serum-free conditioned medium of CHO cells transfected with a cDNA for CETP and purified as described by Wang, S. et al. (J. Biol. Chem. 267, 17487-17490 (1992)). To measure CETP activity, [^3H]CE-labeled-HDL, LDL, CETP and assay buffer (50 mM tris(hydroxymethyl)aminomethane, pH 7.4; 150 mM sodium chloride; 2 mM ethylenediamine-tetraacetic acid (EDTA); 1% bovine serum albumin) were incubated in a final volume of 200 μL, for 2 hours at 37° C. in 96 well plates. […] The inhibitors were then diluted 1:1 with CETP in assay buffer, and then 25 μL of that solution was mixed with 175 μL of lipoprotein pool for assay. Following incubation, LDL was differentially precipitated by the addition of 50 μL of 1% (w/v) dextran sulfate/0.5 M magnesium chloride, mixed by vortex, and incubated at room temperature for 10 minutes. A potion of the solution (200 μL) was transferred to a filter plate (Millipore). After filtration, the radioactivity present in the precipitated LDL was measured by liquid scintillation counting.
This value was defined as the IC50.
Examples of IC50 values determined by these methods are specified in Table 9.

Where [1] appears, read: Inhibition of CETP activity in reconstituted buffer assay, read-out: IC50.

Where two headings read alike, the source gives them in different places. Where only a bound is given, the exact number is not on record here.

This is an account of results in patent publication US6723753B2, “Substituted n-benzyl-n-phenyl aminoalcohol compounds useful for inhibiting cholesteryl ester transfer protein activity” (Pharmacia Corporation, priority 2002, dated 2004).

As a reminder, the IC50 is the point on the concentration scale where inhibition reaches its midpoint. Consider `N#Cc1cccc(N(Cc2cccc(OC(F)(F)C(F)F)c2)CC(O)C(F)(F)F)c1` (stereo not shown) [Example 576, 3-[[[3-(1,1,2,2-tetrafluoroethoxy)phenyl]methyl](3,3,3-trifluoro-2-hydroxypropyl)amino]benzonitrile], for which the 50% inhibitory concentration (IC50) under setting [1] came out at 6.4 µM.
The same measure, in the same setting: as for `O=C(NCc1ccccc1)c1cccc(N(Cc2cccc(OC(F)(F)C(F)F)c2)CC(O)C(F)(F)F)c1` (stereo not shown) [Example 465], the figure is greater than 50 µM; as for `OC(CN(Cc1ccc2c(c1)OCCO2)c1cccc(OC(F)(F)F)c1)C(F)(F)F` (stereo not shown) [Example 105], 35 µM.
The same measure, in the same setting: as for `COc1c(F)c(F)c(CN(CC(O)C(F)(F)F)c2cccc(OC(F)(F)F)c2)c(F)c1F` (stereo not shown) [Example 326], the figure is greater than 100 µM.
As for `Cc1ccc(CN(Cc2ccc(F)cc2)CC(O)C(F)(F)F)cc1` (stereo not shown) [compound 179], the IC50 under setting [1] was greater than 100 µM.
The same measure, in the same setting: for `COc1ccc(Oc2cccc(CN(CC(O)C(F)(F)F)c3cccc(Oc4ccccc4)c3)c2)cc1` (stereo not shown) [Example 161] the value was greater than 100 µM.
Still for that read-out and setting: for `OC(CN(Cc1cc(F)cc(F)c1)c1cccc(OC(F)(F)F)c1)C(F)(F)F` (stereo not shown) [Example 328] the value was greater than 100 µM.
Same read-out and setting: for `Cc1c(COc2cccc(N(Cc3cccc(OC(F)(F)C(F)F)c3)CC(O)C(F)(F)F)c2)cccc1[N+](=O)[O-]` (stereo not shown) [Example 417] the value was 17 µM.
For `OC(CCN(Cc1cccc(OC(F)(F)F)c1)Cc1cccc(OC(F)(F)F)c1)C(F)(F)F` (stereo not shown) [Example 611, 4-[bis-[[3-(trifluoromethoxy)phenyl]methyl]amino]-1,1,1-trifluoro-2-butanol], the IC50 under setting [1] came to 12 µM.
Take `OC(CN(Cc1ccc(F)cc1)Cc1ccc(C(F)(F)F)cc1)C(F)(F)F` (stereo not shown) [compound 170]: the IC50 under setting [1] is greater than 100 µM.
As for `OC(CN(Cc1cccc(Oc2ccccc2)c1)c1cccc(OC(F)(F)F)c1)C(F)(F)F` (stereo not shown) [Example 82], the IC50 under setting [1] amounted to 8 µM.
The same measure, in the same setting: as for `COc1cccc(C(=O)Nc2cccc(N(Cc3cccc(OC(F)(F)C(F)F)c3)CC(O)C(F)(F)F)c2)c1` (stereo not shown) [Example 537], the figure is greater than 50 µM.
On the same count and under the same terms, for `OC(CN(Cc1ccc2c(c1)Cc1ccccc1-2)c1cccc(F)c1)C(F)(F)F` (stereo not shown) [Example 199] the value was 10 µM; for `OC(CN(Cc1ccc2c(c1)OCCO2)c1cccc(Oc2ccccc2)c1)C(F)(F)F` (stereo not shown) [Example 137], 20 µM.
The same measure, in the same setting: for `O=C(O)c1cccc(CN(CC(O)C(F)(F)F)c2cccc(OC(F)(F)F)c2)c1` (stereo not shown) [Example 356] the value was greater than 100 µM.
Turning to `COc1cccc(N(Cc2cccc(C(F)(F)F)c2)CC(O)C(F)(F)F)c1` (stereo not shown) [Example 48], the IC50 under setting [1] was greater than 100 µM.
For the molecule `OC(CN(Cc1cccc(Oc2ccccc2)c1)c1ccc2c(c1)OCO2)C(F)(F)F` (stereo not shown) [Example 130], under setting [1], the IC50 is 80 µM.
For the molecule `OC(CN(Cc1cccc(Oc2ccccc2)c1)c1ccc(-c2ccccc2)cc1)C(F)(F)F` (stereo not shown) [Example 86], the 50% inhibitory concentration (IC50) under setting [1] stood at 20 µM.
Molecule `OC(CN(Cc1cccc(Oc2ccccc2)c1)Cc1cccc(OC(F)(F)F)c1)C(F)(F)F` (stereo not shown) [compound 195] yielded an IC50 (IC50, Inhibition of CETP activity in reconstituted buffer assay) of 30 µM.
On to `OC(CN(Cc1cccc(OC(F)(F)C(F)F)c1)c1cccc(Oc2cc3ccccc3cn2)c1)C(F)(F)F` (stereo not shown) [Example 284], for which the IC50 under setting [1] was greater than 50 µM.
The same measure, in the same setting: for `COc1cccc(N(Cc2ccc(C)cc2)CC(O)C(F)(F)F)c1` (stereo not shown) [Example 4] the value was 60 µM.
Same read-out and setting: for `OC(CN(Cc1cc(C(F)(F)F)cc(C(F)(F)F)c1)c1cccc(Oc2ccccc2)c1)C(F)(F)F` (stereo not shown) [Example 145] the value was 15 µM.
Still for that read-out and setting: for `OC(CN(Cc1ccc(F)cc1)Cc1ccccc1C(F)(F)F)C(F)(F)F` (stereo not shown) [compound 189] the value was greater than 100 µM; for `CC(=O)CCCCOc1cccc(N(Cc2cccc(OC(F)(F)C(F)F)c2)CC(O)C(F)(F)F)c1` (stereo not shown) [Example 495], 1.5 µM.
With `CCC(C)(C)c1ccc(Oc2cccc(N(Cc3cccc(OC(F)(F)C(F)F)c3)CC(O)C(F)(F)F)c2)cc1` (stereo not shown) [Example 255], under setting [1], the IC50 came to 1.6 µM.
Still for that read-out and setting: for `FC(F)(F)CCCN(Cc1cccc(OC(F)(F)F)c1)c1cccc(Oc2ccccc2)c1` [Example 1671, N-(3-phenoxyphenyl)-N-(4,4,4-trifluorobutyl)-3-(trifluoromethoxy) benzenemethanamine] the value was 11 µM; for `O=C(O)c1cncc(Oc2cccc(N(Cc3cccc(OC(F)(F)C(F)F)c3)CC(O)C(F)(F)F)c2)c1` (stereo not shown) [Example 442], 1.1 µM.
Still for that read-out and setting: as for `COc1ccc(CN(CC(O)C(F)(F)F)c2cccc(OC(F)(F)F)c2)cc1` (stereo not shown) [Example 122], the figure is 8 µM; as for `OC(CN(Cc1ccc(Cl)s1)c1cccc(OC(F)(F)F)c1)C(F)(F)F` (stereo not shown) [Example 321], 5 µM.
The same measure, in the same setting: for `OC(CN(Cc1cccc(Oc2ccc(Cl)cc2)c1)c1cccc(Oc2ccccc2)c1)C(F)(F)F` (stereo not shown) [Example 92] the value was 12 µM; for `O=S(=O)(CCOc1cccc(N(Cc2cccc(OC(F)(F)C(F)F)c2)CC(O)C(F)(F)F)c1)c1ccccc1` (stereo not shown) [Example 497], 42 µM.
For `CC(=O)c1cccc(Oc2cccc(N(Cc3cccc(OC(F)(F)C(F)F)c3)CC(O)C(F)(F)F)c2)c1` (stereo not shown) [Example 239], under setting [1], the IC50 is 6.1 µM.
Still for that read-out and setting: for `OC(CN(Cc1cccc(Br)c1)Cc1cccc(OC(F)(F)F)c1)C(F)(F)F` (stereo not shown) [compound 194] the value was 7 µM; for `OC(CN(Cc1cccc(OC(F)(F)C(F)F)c1)c1cccc(Nc2cccc(C(F)(F)F)c2)c1)C(F)(F)F` (stereo not shown) [Example 310], 6.6 µM; for `O=S(=O)(c1cccc(N(Cc2cccc(OC(F)(F)C(F)F)c2)CC(O)C(F)(F)F)c1)C1CCNCC1` (stereo not shown) [Example 484], greater than 50 µM.
Still for that read-out and setting: as for `Cc1ccc(N(Cc2cccc(C)c2)CC(O)C(F)(F)F)cc1` (stereo not shown) [Example 5], the figure is greater than 100 µM.
Turning to `O=S(=O)(Nc1cccc(N(Cc2cccc(OC(F)(F)C(F)F)c2)CC(O)C(F)(F)F)c1)c1ccccc1` (stereo not shown) [Example 529], the IC50 under setting [1] came to 49 µM.
On the same count and under the same terms, as for `CCNc1ccc(Oc2cccc(N(Cc3cccc(OC(F)(F)C(F)F)c3)CC(O)C(F)(F)F)c2)cc1` (stereo not shown) [Example 450B, 3-[[3-[4-(ethylamino)phenoxy]phenyl][[3-(1,1,2,2-tetrafluoroethoxy)phenyl]methyl]amino]-1,1,1-trifluoro-2-propanol], the figure is 1.1 µM; as for `CC(C)C(=O)c1cccc(N(Cc2cccc(OC(F)(F)C(F)F)c2)CC(O)C(F)(F)F)c1` (stereo not shown) [Example 582], 1.4 µM.
With `COc1cc(Nc2cccc(N(Cc3cccc(OC(F)(F)C(F)F)c3)CC(O)C(F)(F)F)c2)cc(OC)c1OC` (stereo not shown) [Example 306], the IC50 under setting [1] came out at 25 µM.
Consider `OC(CN(Cc1cccc(Oc2ccc(Cl)c(Cl)c2)c1)c1cccc(OC(F)(F)F)c1)C(F)(F)F` (stereo not shown) [Example 95], for which the IC50 under setting [1] came out at 60 µM.
In the case of `Cc1ccc(CN(CC(O)C(F)(F)F)c2cccc(C(F)(F)F)c2F)cc1` (stereo not shown) [Example 679], the IC50 under setting [1] was greater than 100 µM.
Still for that read-out and setting: as for `OC(CN(Cc1cccc(C(F)(F)F)c1)c1cccc(Cl)c1)C(F)(F)F` (stereo not shown) [Example 38], the figure is 13 µM; as for `OC(CN(Cc1cccc(OC(F)(F)C(F)F)c1)c1cccc(NCc2ccccc2)c1)C(F)(F)F` (stereo not shown) [Example 542], 2.4 µM; as for `COc1c(F)c(F)c(COc2cccc(N(Cc3cccc(OC(F)(F)C(F)F)c3)CC(O)C(F)(F)F)c2)c(F)c1F` (stereo not shown) [Example 386], 3.2 µM.
Same read-out and setting: as for `COc1c(Cl)cc(-c2cccc(N(Cc3cccc(OC(F)(F)C(F)F)c3)CC(O)C(F)(F)F)c2)cc1Cl` (stereo not shown) [Example 555], the figure is 2.5 µM.
In the case of `OC(CN(Cc1ccc(-c2ccccc2)cc1)c1cccc(C(F)(F)F)c1)C(F)(F)F` (stereo not shown) [Example 143], under setting [1], the IC50 turned out to be 80 µM.
On the same count and under the same terms, for `OC(CN(Cc1cccc(OC(F)(F)C(F)F)c1)c1cccc(-c2ccccc2C(F)(F)F)c1)C(F)(F)F` (stereo not shown) [Example 570] the value was 1.8 µM.
The same measure, in the same setting: as for `CC(c1cccc(F)c1)N(CC(O)C(F)(F)F)c1cccc(Oc2ccccc2)c1` (stereo not shown) [Example 203], the figure is 60 µM; as for `CCCOc1ccc(CN(CC(O)C(F)(F)F)c2cccc(OC(F)(F)F)c2)cc1` (stereo not shown) [Example 125], 25 µM; as for `O=C(c1cccc(CN(CC(O)C(F)(F)F)c2cccc(Oc3ccccc3)c2)c1)N1CCCC1` (stereo not shown) [compound 616], 18 µM.
Still for that read-out and setting: for `COC(=O)c1ccc(CN(CC(O)C(F)(F)F)c2cccc(Oc3ccccc3)c2)cc1` (stereo not shown) [Example 157] the value was greater than 100 µM.
